The source of these data is article PMC8510595, “Vanillin enones as selective inhibitors of the cancer associated carbonic anhydrase isoforms IX and XII. The out of the active site pocket for the design of selective inhibitors?” (Journal of Enzyme Inhibition and Medicinal Chemistry, 2021).

What all share (assay): stopped-flow CO2 hydration assay
Common to all, as to assay type: biochemical

Assay [1] deals with T1, hCA IX (Homo sapiens, UniProt Q16790).
T1 construct: gene CA9; recombinant, obtained in the authors' laboratory; transmembrane isoform
The settings on record: read-out: Ki (μM)^b / hCA IX.

Assay [2] addresses T2, hCA XII (Homo sapiens, UniProt O43570).
T2 construct: gene CA12; recombinant, obtained in the authors' laboratory; transmembrane isoform
The settings on record: read-out: Ki (μM)^b / hCA XII.

The target of assay [3] is T3, hCA I (Homo sapiens, UniProt P00915).
T3 construct: gene CA1; recombinant, obtained in the authors' laboratory; cytosolic
The settings on record: read-out: Ki (μM)^b / hCA I.

Assay [4] has as its target T4, hCA II (Homo sapiens, UniProt P00918).
T4 construct: gene CA2; recombinant, obtained in the authors' laboratory; cytosolic

Where two headings read alike, the source gives them in different places. Where only a bound is given, the exact number is not on record here.

T3 sequence (P00915 2-261): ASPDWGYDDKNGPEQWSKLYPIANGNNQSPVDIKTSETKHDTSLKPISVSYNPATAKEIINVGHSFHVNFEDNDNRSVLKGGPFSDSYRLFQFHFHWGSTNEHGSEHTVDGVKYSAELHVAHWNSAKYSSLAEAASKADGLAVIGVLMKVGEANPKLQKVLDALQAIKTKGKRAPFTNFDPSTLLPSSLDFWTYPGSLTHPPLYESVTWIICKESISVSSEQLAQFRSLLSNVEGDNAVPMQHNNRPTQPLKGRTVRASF
T2 sequence (O43570 25-354 limits assumed): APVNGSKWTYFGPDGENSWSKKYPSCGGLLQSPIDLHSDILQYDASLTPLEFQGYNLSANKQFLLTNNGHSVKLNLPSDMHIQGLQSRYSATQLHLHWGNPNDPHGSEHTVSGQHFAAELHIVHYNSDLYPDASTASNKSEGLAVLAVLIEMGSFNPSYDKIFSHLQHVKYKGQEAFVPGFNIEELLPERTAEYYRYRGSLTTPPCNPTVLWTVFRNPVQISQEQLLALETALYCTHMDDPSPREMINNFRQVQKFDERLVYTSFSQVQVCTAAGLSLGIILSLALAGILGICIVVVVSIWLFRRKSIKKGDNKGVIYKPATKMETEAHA

For `COc1cc(/C=C/C(=O)c2ccc(Br)cc2)ccc1O` [compound 7, (E)-1–(4-Bromophenyl)-3–(4-hydroxy-3-methoxyphenyl)prop-2-en-1-one], the Ki in assay [1] is more than 100 µM; in assay [2], 6.4 µM; in assay [3], 92.6 µM; in assay [4] (read-out: Ki (μM)^b / hCA II) it was 82 µM.

`COc1cc(/C=C/C(=O)C[C@@H]2O[C@H](CO)[C@@H](O)[C@H](O)[C@H]2O)ccc1O` [compound 1, 1-(β-D-glucopyranosyl)-4–(4-hydroxy-3-methoxyphenyl)but-3-en-2-one]: the Ki was 30.8 µM in assay [1], 4.8 µM in assay [2], 71.6 µM in assay [3] and more than 100 µM in assay [4] (read-out: Ki (μM)^b / hCA II).

Consider `COc1cc(/C=C/C(=O)c2ccccc2)ccc1O` [compound 6, (E)-3–(4-Hydroxy-3-methoxyphenyl)-1-phenylprop-2-en-1-one], for which the Ki was 29.1 µM in assay [1], 0.63 µM in assay [2], 76.3 µM in assay [3] and 96.4 µM in assay [4] (read-out: Ki (μM)^b / hCA II).

`CCC(=O)/C=C/c1ccc(O)c(OC)c1` [compound 4, (E)-1–(4-Hydroxy-3-methoxyphenyl)pent-1-en-3-one]: the Ki in assay [1] was 32 µM; in assay [2], 2.5 µM; in assay [3], more than 100 µM; in assay [4] (read-out: Ki (μM)^b / hCA I), more than 100 µM.

With `COc1cc(/C=C/C(=O)C[C@@H]2O[C@H](CO)[C@H](O)[C@H](O)[C@H]2O)ccc1O` [compound 2, 1-(β-D-galactopyranosyl)-4–(4-hydroxy-3-methoxyphenyl)but-3-en-2-one], the Ki in assay [1] is 20.8 µM; in assay [2] it was 2.5 µM; in assay [3] it was 80.5 µM; in assay [4] (read-out: Ki (μM)^b / hCA II), more than 100 µM.

Consider `COc1cc(/C=C/C(=O)CC(C)C)ccc1O` [compound 5, (E)-1–(4-Hydroxy-3-methoxyphenyl)-5-methylhex-1-en-3-one], for which the Ki in assay [1] is 26.3 µM; in assay [2] it was 1.7 µM; in assay [3] it was more than 100 µM; in assay [4] (read-out: Ki (μM)^b / hCA I), more than 100 µM.
